Experimental data as given in the C3SDB collision cross section collection.

settings: [M+H-H2O]+; instrument: TW; calibrated with polyalanine and drug standards

| SMILES | collision cross section (N2) [Å²] |
| --- | --- |
| C[C@@H](N)[C@@H](O)c1ccccc1 [1R,2S-PHENYLPROPYLAMINE] | 127.8 |

same assay, conditions: [M+H]+; instrument: TW; calibrated with polyalanine and drug standards

| SMILES | collision cross section (N2) [Å²] |
| --- | --- |
| CC(CC(C(N)=O)(c1ccccc1)c1ccccc1)N(C)C (configuration not stated) [AMINOPENTAMIDE] | 169.6 |
| C=C[C@H](C1=CC(=O)C=CC1=O)c1ccccc1 [S-DALBERGIONE] | 143.6 |
| NC(=O)c1ccc(N)nc1 [6-AMINONICOTINAMIDE] | 125.7 |
| Oc1cc(O)c2c(c1)O[C@H](c1ccc(O)c(O)c1)[C@H](O)C2 [EPICATECHIN] | 161.5 |
| NS(=O)(=O)c1cc2c(cc1Cl)NC(CSCc1ccccc1)=NS2(=O)=O [BENZTHIAZIDE] | 186.7 |
| Cc1c2oc3c(C)ccc(C(=O)N[C@@H]4C(=O)N[C@H](C(C)C)C(=O)N5CCC[C@H]5C(=O)N(C)CC(=O)N(C)[C@@H](C(C)C)C(=O)O[C@@H]4C)c3nc-2c(C(=O)N[C@@H]2C(=O)N[C@H](C(C)C)C(=O)N3CCC[C@H]3C(=O)N(C)CC(=O)N(C)[C@@H](C(C)C)C(=O)O[C@@H]2C)c(N)c1=O [DACTINOMYCIN] | 341.2 |
| O=c1c(-c2cc(O)c(O)c(O)c2)coc2cc(O)c(O)c(O)c12 [IRIGENOL] | 166.5 |
| CC[C@H]1OC(=O)[C@H](C)[C@@H](O[C@H]2C[C@@](C)(OC)[C@@H](O)[C@H](C)O2)[C@H](C)[C@@H](O[C@@H]2O[C@H](C)C[C@H](N(C)C)[C@H]2O)[C@](C)(O)C[C@@H](C)C(=O)[C@H](C)[C@@H](O)[C@]1(C)O [ERYTHROMYCIN] | 258.1 |
| O=C(/C=C/c1ccccc1)c1ccc(O)cc1 [4'-HYDROXYCHALCONE] | 150.8 |
| CC1(C)[C@@H](O)CC[C@]2(C)[C@H]3C(=O)C=C4[C@@H]5C[C@@](C)(C(=O)O)CC[C@]5(C)CC[C@@]4(C)[C@]3(C)CC[C@@H]12 [ENOXOLONE] | 213.9 |
| COc1ccc2oc3ccccc3c(=O)c2c1 [2-METHOXYXANTHONE] | 142.4 |
| COc1ccc(-c2cc(=O)c3c(O)cc(O[C@@H]4O[C@H](CO[C@@H]5O[C@@H](C)[C@H](O)[C@@H](O)[C@H]5O)[C@@H](O)[C@H](O)[C@H]4O)cc3o2)cc1O [DIOSMIN] | 242.5 |
| O=C1C=C2CC3(O)COc4c(ccc(O)c4O)C3=C2C=C1O (configuration not stated) [HEMATEIN] | 162.5 |
| Cc1ncc(CNC(=O)N(CCCl)N=O)c(N)n1 [NIMUSTINE] | 158.9 |
| C[C@@H]1CC[C@@]2(OC1)O[C@H]1C[C@H]3[C@@H]4CC[C@@H]5C[C@@H](O)CC[C@]5(C)[C@H]4CC[C@]3(C)[C@H]1[C@@H]2C [SMILAGENIN] | 207.7 |
| Nc1nc(=O)c2[nH]c(=O)cnc2[nH]1 [XANTHOPTERIN] | 131.1 |
| C=C(C)[C@H]1CN[C@H](C(=O)O)[C@H]1CC(=O)O [KAINIC ACID] | 144.2 |
| C=CC[C@]1(O)CC[C@H]2[C@@H]3CCC4=CC(=O)CCC4=C3C=C[C@@]21C [ALTRENOGEST] | 177 |
| O=C1C=C2C=C[C@@H]3C[C@@]2(O1)[C@H]1CCCCN31 [SECURININE] | 146.4 |
| O=C1CCc2cc(OCCCCc3nnnn3C3CCCCC3)ccc2N1 [CILOSTAZOL] | 199.7 |
| O=C1OC2(c3ccc(O)cc3Oc3cc(O)ccc32)c2ccccc21 [FLUORESCEIN] | 172.3 |
| CCCCOc1cc(CC2CNC(=O)N2)ccc1OC (configuration not stated) [4-(3-BUTOXY-4-METHOXYBENZYL)IMIDAZOLIDIN-2-ONE] | 174 |
| C=C(C)C1Cc2c(ccc3c(=O)c4c(oc23)COc2cc(OC)c(OC)cc2-4)O1 (configuration not stated) [DEHYDROROTENONE] | 192.3 |
| CC(=O)Nc1ccc(S(=O)(=O)Nc2ccc([N+](=O)[O-])cc2)cc1 [SULFANITRAN] | 173.2 |
| O=c1cc(-c2cc(O)c(O)c(O)c2)oc2cc(O)cc(O)c12 [HIERACIN] | 163.4 |
| C[C@@H]1O[C@@H](O[C@H]2C[C@@H](O)[C@]3(CO)[C@H]4[C@H](O)C[C@]5(C)[C@@H](C6=CC(=O)OC6)CC[C@]5(O)[C@@H]4CC[C@]3(O)C2)[C@H](O)[C@H](O)[C@H]1O [OUABAIN] | 234 |
| CC[C@H]1OC(=O)C[C@@H](O)[C@H](C)[C@@H](O[C@@H]2O[C@H](C)[C@@H](O[C@H]3C[C@@](C)(O)[C@@H](O)[C@H](C)O3)[C@H](N(C)C)[C@H]2O)[C@@H](CC=O)C[C@@H](C)C(=O)/C=C/C(C)=C/[C@@H]1CO[C@@H]1O[C@H](C)[C@@H](O)[C@@H](OC)[C@H]1OC [TYLOSIN] | 307.8 |
| CC(C)N=c1cc2n(-c3ccc(Cl)cc3)c3ccccc3nc-2cc1Nc1ccc(Cl)cc1 [CLOFAZIMINE] | 216.8 |

Now from value to compound:

| collision cross section (N2) [Å²] | SMILES |
| --- | --- |
| 181.4 | COc1c2ccoc2nc2c(OC)c(OCC(O)C(C)(C)O)ccc12 (configuration not stated) [EVOXINE] |
| 123.7 | Cc1cc(=O)[nH]c(=S)[nH]1 [METHYLTHIOURACIL] |
| 159.4 | COc1ccc(C(=O)CC(=O)O)c2c1C=CC(C)(C)O2 [URSINOIC ACID] |
| 181.2 | Cc1ccccc1N1C(=O)c2cc(S(N)(=O)=O)c(Cl)cc2NC1C (configuration not stated) [METOLAZONE] |
| 155.9 | Cc1ncc(C[n+]2csc(CCO)c2C)c(N)n1 [THIAMINE] |
| 241.2 | CCCCCCCCCCC[C@@H](C[C@@H]1OC(=O)[C@H]1CCCCCC)OC(=O)[C@H](CC(C)C)NC=O [ORLISTAT] |
| 129.1 | Cc1cc(O)cc(O)c1C(=O)O [ORSELLINIC ACID] |
| 204.4 | Nc1nc(N)c2nc(CNc3ccc(C(=O)N[C@@H](CCC(=O)O)C(=O)O)cc3)cnc2n1 [AMINOPTERIN] |
| 130.4 | Cc1ncc([N+](=O)[O-])n1CCO [METRONIDAZOLE] |
| 165.6 | COc1c(O)cc2c(-c3ccccc3)cc(=O)oc2c1OC [KUHLMANNIN] |
| 207.6 | C=C1C2CC[C@@]3(C)[C@H](c4ccoc4)OC(=O)C[C@]13O[C@H]1CC(=O)C(C)(C)[C@H](C(O)C(=O)OC)[C@@]21C (some centres not stated) [6-HYDROXYANGOLENSIC ACID METHYL ESTER] |
| 310.2 | CC[C@H]1OC(=O)C[C@@H](O)[C@H](C)[C@@H](O[C@@H]2O[C@H](C)[C@@H](O)[C@H](N(C)C)[C@H]2O)[C@@H](CCN2C[C@H](C)C[C@H](C)C2)C[C@@H](C)C(=O)/C=C/C(C)=C/[C@@H]1CO[C@@H]1O[C@H](C)[C@@H](O)[C@@H](OC)[C@H]1OC [TILMICOSIN] |
| 122.2 | O=C(O)c1ccccc1 [BENZOIC ACID] |
| 134 | O=C(O)c1cc(=O)c2ccccc2o1 [CHROMOCARB] |
| 152.7 | CCOc1ccc2nc(S(N)(=O)=O)sc2c1 [ETHOXZOLAMIDE] |
| 134.4 | CCOC(=O)n1ccn(C)c1=S [CARBIMAZOLE] |
| 196.5 | Cc1cnc(C(=O)NCCc2ccc(S(=O)(=O)NC(=O)NC3CCCCC3)cc2)cn1 [GLIPIZIDE] |
| 159.4 | CCCCOC(=O)c1ccc(N)cc1 [BUTAMBEN] |
| 129.5 | Oc1ccc(Cl)c2cccnc12 [CLOXYQUIN] |
| 170.7 | CS(=O)(=O)c1ccc([C@@H](O)[C@@H](CO)NC(=O)C(Cl)Cl)cc1 [THIAMPHENICOL] |
| 192.6 | NC(=O)C1(N2CCCCC2)CCN(CCCC(=O)c2ccc(F)cc2)CC1 [PIPAMPERONE] |
| 126.4 | S=c1[nH]c2ccccc2s1 [2-MERCAPTOBENZOTHIAZOLE] |
| 150.9 | Nc1ccc(S(=O)(=O)Nc2ncccn2)cc1 [SULFADIAZINE] |
| 218.1 | CCC(=O)OCC(=O)[C@@]1(OC(=O)CC)[C@@H](C)C[C@H]2[C@@H]3CCC4=CC(=O)C=C[C@]4(C)[C@@]3(F)[C@@H](O)C[C@@]21C [BETAMETHASONE 17,21-DIPROPIONATE] |
| 199.7 | CC1(C)O[C@@H]2C[C@H]3[C@@H]4C[C@H](F)C5=CC(=O)C=C[C@]5(C)[C@@]4(F)[C@@H](O)C[C@]3(C)[C@]2(C(=O)CO)O1 [FLUOCINOLONE ACETONIDE] |
| 197.3 | CCCCCCCCNC(C)C(O)c1ccc(SC(C)C)cc1 (configuration not stated) [SULOCTIDIL] |
| 187.3 | O=C(OCC(O)CO)c1ccccc1Nc1ccnc2cc(Cl)ccc12 (configuration not stated) [GLAFENINE] |
| 167.2 | NC(N)=Nc1nc(CSCC/C(N)=N/S(N)(=O)=O)cs1 [FAMOTIDINE] |

same assay, conditions: [M+Na]+; instrument: TW; calibrated with polyalanine and drug standards

| SMILES | collision cross section (N2) [Å²] |
| --- | --- |
| CO[C@H]1C[C@@H]2CC[C@@H](C)[C@@](O)(O2)C(=O)C(=O)N2CCCC[C@H]2C(=O)O[C@H]([C@H](C)C[C@@H]2CC[C@@H](O)[C@H](OC)C2)CC(=O)[C@H](C)/C=C(\C)[C@@H](O)[C@@H](OC)C(=O)[C@H](C)C[C@H](C)/C=C/C=C/C=C/1C [SIROLIMUS] | 311.6 |
| C[C@H](CCC(=O)O)[C@H]1CC[C@H]2[C@@H]3C(=O)C[C@@H]4CC(=O)CC[C@]4(C)[C@H]3CC(=O)[C@]12C [DEHYDROCHOLIC ACID] | 192.1 |

Second part, the compound after the results:

| collision cross section (N2) [Å²] | SMILES |
| --- | --- |
| 170.1 | CC1(C)O[C@@H]2[C@@H](CO[C@@]3(COS(N)(=O)=O)OC(C)(C)O[C@@H]23)O1 [TOPIRAMATE] |
| 235.6 | CC(=O)O[C@H]1C[C@@]2(C)[C@@H](C[C@@H](O)[C@H]3[C@@]4(C)CC[C@@H](O)[C@@H](C)[C@@H]4CC[C@@]32C)/C1=C(\CCC=C(C)C)C(=O)O [FUSIDIC ACID] |
| 202 | CC[C@H](C)C(=O)O[C@H]1C[C@@H](C)C=C2C=C[C@H](C)[C@H](CC[C@@H]3C[C@@H](O)CC(=O)O3)[C@H]21 [LOVASTATIN] |
